In ChEMBL document CHEMBL1201861, “Genomics of Drug Sensitity in Cancer screening data, Wellcome Trust Sanger Institute”:

Experiments:
Assay in all cases: cells
[1] = system: NCI-H1882; assay type: functional, cell-based, Homo sapiens; conditions: Homo sapiens, NCI-H1882;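 note: growth inhibition of the cell line, determined with a viability assay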
Description: SANGER: Inhibition of human NCI-H1882 cell growth in a cell viability assay.

[2] = system: NB1; assay type: functional, cell-based, Homo sapiens; conditions: Homo sapiens, NB1;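 note: reduction of NB1 cell proliferation, read out with a viability assay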
Description: SANGER: Inhibition of human NB1 cell growth in a cell viability assay.

[3] = system: JIYOYE; assay type: functional, cell-based, Homo sapiens; conditions: Homo sapiens, JIYOYE
Description: SANGER: Inhibition of human JiyoyeP-2003 cell growth in a cell viability assay.

[4] = system: SIG-M5; assay type: functional, cell-based, Homo sapiens; conditions: Homo sapiens, SIG-M5;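 note: cell viability assay read-out, measuring how strongly growth of cultured human SIG-M5 cells is inhibited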
Description: SANGER: Inhibition of human SIG-M5 cell growth in a cell viability assay.

[5] = system: NALM-6; assay type: functional, cell-based, Homo sapiens; conditions: Homo sapiens, NALM-6;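 note: growth inhibition of NALM-6 cells, read out with a cell viability assay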
Description: SANGER: Inhibition of human NALM-6 cell growth in a cell viability assay.

[6] = system: NCI-H716; assay type: functional, cell-based, Homo sapiens; conditions: Homo sapiens, NCI-H716;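 note: growth inhibition of human NCI-H716 cells, measured by a cell viability assay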
Description: SANGER: Inhibition of human NCI-H716 cell growth in a cell viability assay.

[7] = system: P31-FUJ; assay type: functional, cell-based, Homo sapiens; conditions: Homo sapiens, P31-FUJ;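 note: growth inhibition of P31-FUJ cells, read out with a viability assay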
Description: SANGER: Inhibition of human P31-FUJ cell growth in a cell viability assay.

[8] = system: MONO-MAC-6; assay type: functional, cell-based, Homo sapiens; conditions: Homo sapiens, MONO-MAC-6;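 note: cell viability assay measuring growth inhibition of human MONO-MAC-6 cells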
Description: SANGER: Inhibition of human MONO-MAC-6 cell growth in a cell viability assay.

[9] = system: DG-75; assay type: functional, cell-based, Homo sapiens; conditions: Homo sapiens, DG-75;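 note: growth inhibition of DG-75 cells, read out with a cell viability assay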
Description: SANGER: Inhibition of human DG-75 cell growth in a cell viability assay.

[10] = system: ECC4; assay type: functional, cell-based, Homo sapiens; conditions: Homo sapiens, ECC4;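 note: growth inhibition of ECC4 cells, read out with a cell viability assay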
Description: SANGER: Inhibition of human ECC4 cell growth in a cell viability assay.

[11] = system: MDA-MB-134-VI; assay type: functional, cell-based, Homo sapiens; conditions: Homo sapiens, MDA-MB-134-VI
Description: SANGER: Inhibition of human MDA-MB-134-VI cell growth in a cell viability assay.

[12] = system: NCI-H1694; assay type: functional, cell-based, Homo sapiens; conditions: Homo sapiens, NCI-H1694;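 note: cell viability assay measuring inhibition of growth in human NCI-H1694 cells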
Description: SANGER: Inhibition of human NCI-H1694 cell growth in a cell viability assay.

[13] = system: UMC-11; assay type: functional, cell-based, Homo sapiens; conditions: Homo sapiens, UMC-11;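 note: growth inhibition of UMC-11 cells, read out with a cell viability assay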
Description: SANGER: Inhibition of human UMC-11 cell growth in a cell viability assay.

[14] = system: EGI-1; assay type: functional, cell-based, Homo sapiens; conditions: Homo sapiens, EGI-1;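 note: cell viability readout used to gauge growth inhibition of EGI-1 cells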
Description: SANGER: Inhibition of human EGI-1 cell growth in a cell viability assay.

[15] = system: NCI-H1755; assay type: functional, cell-based, Homo sapiens; conditions: Homo sapiens, NCI-H1755;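 note: cell viability readout used to measure growth inhibition of NCI-H1755 cells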
Description: SANGER: Inhibition of human NCI-H1755 cell growth in a cell viability assay.

[16] = system: SW-620; assay type: functional, cell-based, Homo sapiens; conditions: Homo sapiens, SW-620;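 note: growth inhibition of human SW-620 cells, measured by a cell viability assay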
Description: SANGER: Inhibition of human SW620 cell growth in a cell viability assay.

[17] = system: A2058; assay type: functional, cell-based, Homo sapiens; conditions: Homo sapiens, A2058;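 note: reduction of A2058 cell growth, read out with a viability assay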
Description: SANGER: Inhibition of human A2058 cell growth in a cell viability assay.

[18] = system: MEL-JUSO; assay type: functional, cell-based, Homo sapiens; conditions: Homo sapiens, MEL-JUSO;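 note: growth inhibition of human MEL-JUSO cells, read out with a cell viability assay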
Description: SANGER: Inhibition of human MEL-JUSO cell growth in a cell viability assay.

[19] = system: Calu-3; assay type: functional, cell-based, Homo sapiens; conditions: Homo sapiens, Calu-3;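 note: growth inhibition of human Calu-3 cells, determined with a cell viability assay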
Description: SANGER: Inhibition of human Calu-3 cell growth in a cell viability assay.

[20] = system: NCI-H1693; assay type: functional, cell-based, Homo sapiens; conditions: Homo sapiens, NCI-H1693;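 note: growth inhibition of the human cell line, read out with a cell viability assay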
Description: SANGER: Inhibition of human NCI-H1693 cell growth in a cell viability assay.

[21] = system: U-251; assay type: functional, cell-based, Homo sapiens; conditions: Homo sapiens, U-251;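 note: growth inhibition of human U-251 cells, read out through a cell viability assay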
Description: SANGER: Inhibition of human U251 cell growth in a cell viability assay.

[22] = system: NCI-H2342; assay type: functional, cell-based, Homo sapiens; conditions: Homo sapiens, NCI-H2342;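 note: growth inhibition of the cancer cell line, determined with a cell viability assay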
Description: SANGER: Inhibition of human NCI-H2342 cell growth in a cell viability assay.

[23] = system: OE33; assay type: functional, cell-based, Homo sapiens; conditions: Homo sapiens, OE33;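 note: growth inhibition of human OE33 cells, measured by a cell viability assay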
Description: SANGER: Inhibition of human OE33 cell growth in a cell viability assay.

[24] = system: COLO-792; assay type: functional, cell-based, Homo sapiens; conditions: Homo sapiens, COLO-792
Description: SANGER: Inhibition of human COLO-792 cell growth in a cell viability assay.

[25] = system: BT-20; assay type: functional, cell-based, Homo sapiens; conditions: Homo sapiens, BT-20;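 note: cell viability assay measuring suppression of growth in human BT-20 cells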
Description: SANGER: Inhibition of human BT-20 cell growth in a cell viability assay.

[26] = system: CHL-1; assay type: functional, cell-based, Homo sapiens; conditions: Homo sapiens, CHL-1;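 note: cell growth inhibition, read out with a cell viability assay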
Description: SANGER: Inhibition of human CHL-1 cell growth in a cell viability assay.

[27] = system: HCC70; assay type: functional, cell-based, Homo sapiens; conditions: Homo sapiens, HCC70;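 note: cell viability assay measuring how strongly the compound suppresses proliferation of HCC70 cells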
Description: SANGER: Inhibition of human HCC70 cell growth in a cell viability assay.

[28] = system: AGS; assay type: functional, cell-based, Homo sapiens; conditions: Homo sapiens, AGS;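 note: growth inhibition of AGS cells, determined with a cell viability assay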
Description: SANGER: Inhibition of human AGS cell growth in a cell viability assay.

[29] = system: COR-L23; assay type: functional, cell-based, Homo sapiens; conditions: Homo sapiens, COR-L23;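 note: cell viability assay measuring how strongly compounds suppress growth of COR-L23 cells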
Description: SANGER: Inhibition of human COR-L23 cell growth in a cell viability assay.

[30] = system: HCT-116; assay type: functional, cell-based, Homo sapiens; conditions: Homo sapiens, HCT-116
Description: SANGER: Inhibition of human HCT-116 cell growth in a cell viability assay.

[31] = system: CAL-39; assay type: functional, cell-based, Homo sapiens; conditions: Homo sapiens, CAL-39;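 note: cell viability assay measuring growth inhibition of CAL-39 cells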
Description: SANGER: Inhibition of human CAL-39 cell growth in a cell viability assay.

[32] = system: CAL-72; assay type: functional, cell-based, Homo sapiens; conditions: Homo sapiens, CAL-72;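 note: cell viability assay measuring inhibition of proliferation in the CAL-72 cell line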
Description: SANGER: Inhibition of human CAL-72 cell growth in a cell viability assay.

[33] = system: NCI-H2228; assay type: functional, cell-based, Homo sapiens; conditions: Homo sapiens, NCI-H2228;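 note: growth inhibition of human NCI-H2228 cells, read out by a cell viability assay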
Description: SANGER: Inhibition of human NCI-H2228 cell growth in a cell viability assay.

[34] = system: SW948; assay type: functional, cell-based, Homo sapiens; conditions: Homo sapiens, SW948;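 note: growth inhibition of SW948 cells, read out with a cell viability assay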
Description: SANGER: Inhibition of human SW948 cell growth in a cell viability assay.

[35] = system: U2OS; assay type: functional, cell-based, Homo sapiens, U-2-OS; conditions: Homo sapiens, U2OS;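 note: growth inhibition of human U-2-OS cells, determined with a cell viability assay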
Description: SANGER: Inhibition of human U-2-OS cell growth in a cell viability assay.

[36] = system: SW1573; assay type: functional, cell-based, Homo sapiens; conditions: Homo sapiens, SW1573;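 note: growth inhibition of SW1573 cells, read out with a cell viability assay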
Description: SANGER: Inhibition of human SW1573 cell growth in a cell viability assay.

[37] = system: NCI-H460; assay type: functional, cell-based, Homo sapiens; conditions: Homo sapiens, NCI-H460;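 note: cell viability assay scoring growth inhibition of human NCI-H460 cells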
Description: SANGER: Inhibition of human NCI-H460 cell growth in a cell viability assay.

[38] = system: T84; assay type: functional, cell-based, Homo sapiens; conditions: Homo sapiens, T84;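 note: growth inhibition measured with a cell viability readout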
Description: SANGER: Inhibition of human T84 cell growth in a cell viability assay.

[39] = system: HuCCT-1; assay type: functional, cell-based, Homo sapiens, HuCCT1; conditions: Homo sapiens, HuCCT-1;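 note: growth inhibition of HuCCT-1 cells, read out by a cell viability assay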
Description: SANGER: Inhibition of human HuCCT1 cell growth in a cell viability assay.

[40] = system: MHH-ES-1; assay type: functional, cell-based, Homo sapiens; conditions: Homo sapiens, MHH-ES-1;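 note: cell growth inhibition measured by a cell viability assay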
Description: SANGER: Inhibition of human MHH-ES-1 cell growth in a cell viability assay.

[41] = system: PA-1; assay type: functional, cell-based, Homo sapiens; conditions: Homo sapiens, PA-1;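 note: IC50 for suppression of PA-1 cell proliferation, determined with a cell viability read-out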
Description: SANGER: Inhibition of human PA-1 cell growth in a cell viability assay.

[42] = system: SK-N-AS; assay type: functional, cell-based, Homo sapiens; conditions: Homo sapiens, SK-N-AS;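 note: growth inhibition of human SK-N-AS cells, measured with a cell viability assay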
Description: SANGER: Inhibition of human SK-N-AS cell growth in a cell viability assay.

[43] = system: YAPC; assay type: functional, cell-based, Homo sapiens; conditions: Homo sapiens, YAPC;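 note: growth inhibition of YAPC cells, measured with a cell viability assay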
Description: SANGER: Inhibition of human YAPC cell growth in a cell viability assay.

[44] = system: RPMI-2650; assay type: functional, cell-based, Homo sapiens; conditions: Homo sapiens, RPMI-2650
Description: SANGER: Inhibition of human RPMI-2650 cell growth in a cell viability assay.

[45] = system: HEC-1; assay type: functional, cell-based, Homo sapiens; conditions: Homo sapiens, HEC-1;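 note: growth inhibition of the cell line, read out with a cell viability assay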
Description: SANGER: Inhibition of human HEC-1 cell growth in a cell viability assay.

COc1cc(N2CCN(C)CC2)ccc1Nc1ncc2c(n1)N(C)c1ccccc1C(=O)N2C
IC50 [1]: > 8000 nM
IC50 [2]: > 8000 nM
IC50 [3]: 6890 nM
IC50 [4]: 5360 nM
IC50 [5]: 4960 nM
IC50 [6]: > 8000 nM
IC50 [7]: > 8000 nM
IC50 [8]: > 8000 nM
IC50 [9]: 5610 nM
IC50 [10]: > 8000 nM
IC50 [11]: > 8000 nM
IC50 [12]: > 8000 nM

COc1cc(-c2nn([C@H]3CC[C@H](N4CCN(C(C)=O)CC4)CC3)c3ncnc(N)c23)ccc1NC(=O)c1cc2ccccc2n1C
IC50 [1]: > 5120 nM
IC50 [2]: > 5120 nM
IC50 [3]: 4210 nM
IC50 [4]: > 5120 nM
IC50 [5]: 2240 nM
IC50 [6]: > 5120 nM
IC50 [7]: > 5120 nM
IC50 [8]: > 5120 nM
IC50 [9]: > 5120 nM
IC50 [10]: > 5120 nM
IC50 [11]: > 5120 nM
IC50 [12]: > 5120 nM

OCCCNc1cc(-c2ccnc(Nc3cccc(Cl)c3)n2)ccn1
IC50 [1]: > 256 nM
IC50 [2]: 84.3 nM
IC50 [3]: 32.2 nM
IC50 [4]: 29.9 nM
IC50 [5]: 46.8 nM
IC50 [6]: > 256 nM
IC50 [7]: > 256 nM
IC50 [8]: 85.9 nM
IC50 [9]: 111 nM
IC50 [10]: > 256 nM
IC50 [11]: > 256 nM
IC50 [12]: > 256 nM

N#Cc1c(O)c2c(-c3ccc(-c4ccccc4O)cc3)csc2[nH]c1=O
IC50 [13]: > 1020 nM
IC50 [14]: > 1020 nM
IC50 [15]: > 1020 nM
IC50 [1]: 409 nM
IC50 [16]: > 1020 nM
IC50 [17]: > 1020 nM
IC50 [18]: > 1020 nM
IC50 [2]: > 1020 nM
IC50 [19]: > 1020 nM
IC50 [20]: > 1020 nM
IC50 [21]: > 1020 nM
IC50 [22]: > 1020 nM
IC50 [23]: > 1020 nM
IC50 [24]: > 1020 nM
IC50 [3]: 83.7 nM
IC50 [25]: > 1020 nM
IC50 [4]: 7.86 nM
IC50 [5]: 31.7 nM
IC50 [26]: > 1020 nM
IC50 [27]: > 1020 nM
IC50 [6]: > 1020 nM
IC50 [28]: > 1020 nM
IC50 [7]: > 1020 nM
IC50 [29]: > 1020 nM
IC50 [30]: > 1020 nM
IC50 [31]: > 1020 nM
IC50 [8]: 114 nM
IC50 [9]: > 1020 nM
IC50 [10]: 509 nM
IC50 [32]: > 1020 nM
IC50 [33]: > 1020 nM
IC50 [11]: > 1020 nM
IC50 [34]: > 1020 nM
IC50 [35]: > 1020 nM
IC50 [36]: > 1020 nM
IC50 [37]: > 1020 nM
IC50 [38]: > 1020 nM
IC50 [39]: > 1020 nM
IC50 [40]: > 1020 nM
IC50 [41]: > 1020 nM
IC50 [42]: > 1020 nM
IC50 [43]: > 1020 nM
IC50 [44]: > 1020 nM
IC50 [12]: 977 nM
IC50 [45]: > 1020 nM

Cc1ccc(-c2c(C(=O)CCl)n(CCCO)c3ncnc(N)c23)cc1
IC50 [1]: > 4000 nM
IC50 [2]: > 4000 nM
IC50 [3]: > 4000 nM
IC50 [4]: > 4000 nM
IC50 [5]: > 4000 nM
IC50 [6]: > 4000 nM
IC50 [7]: > 4000 nM
IC50 [8]: 3930 nM
IC50 [9]: > 4000 nM
IC50 [10]: > 4000 nM
IC50 [11]: > 4000 nM
IC50 [12]: > 4000 nM

COc1cccc2c1C(=O)c1c(O)c3c(c(O)c1C2=O)C[C@@](O)(C(=O)CO)C[C@@H]3O[C@H]1C[C@H](N)[C@H](O)[C@H](C)O1 [DOXORUBICIN]
IC50 [13]: 331 nM
IC50 [14]: 598 nM
IC50 [15]: 874 nM
IC50 [1]: 215 nM
IC50 [16]: 26.6 nM
IC50 [17]: 17.7 nM
IC50 [18]: 14.5 nM
IC50 [2]: 46 nM
IC50 [19]: 56 nM
IC50 [20]: 290 nM
IC50 [21]: 64.9 nM
IC50 [22]: 22.9 nM
IC50 [23]: 426 nM
IC50 [24]: > 1020 nM
IC50 [3]: 138 nM
IC50 [25]: > 1020 nM
IC50 [4]: 25.7 nM
IC50 [5]: 18.6 nM
IC50 [26]: 37.7 nM
IC50 [27]: > 1020 nM
IC50 [6]: > 1020 nM
IC50 [28]: 13.3 nM
IC50 [7]: > 1020 nM
IC50 [29]: 32 nM
IC50 [31]: 98.2 nM
IC50 [8]: 154 nM
IC50 [9]: 666 nM
IC50 [10]: > 1020 nM
IC50 [32]: 841 nM
IC50 [33]: 13.5 nM
IC50 [11]: > 1020 nM
IC50 [34]: > 1020 nM
IC50 [35]: > 1020 nM
IC50 [36]: 82.8 nM
IC50 [37]: 12.7 nM
IC50 [38]: 57.1 nM
IC50 [39]: 72.9 nM
IC50 [40]: 21.6 nM
IC50 [41]: 44.5 nM
IC50 [42]: > 1020 nM
IC50 [43]: > 1020 nM
IC50 [44]: 13.7 nM
IC50 [12]: 200 nM
IC50 [45]: 183 nM
